Starred links: 1 amine or outer side, 2 acyl side, 3 side chain; linkers in the order of their positions; H or OH if unused. Non-standard residues stand in square brackets, D forms with d. Residues, ends and D or L forms follow the SMILES beside them. Groups on a side chain read outwards from the residue. *: point of attachment. C18 diacid = O=C(O)CCCCCCCCCCCCCCCCC(=O)*; γGlu = O=C(O)[C@H](CCC(=O)[*:2])N[*:1]; αMeF = C[C@](N)(Cc1ccccc1)C(=O)O; Aib = CC(C)(N)C(=O)O
How the values were obtained:
[1] = target: human GLP-1 receptor (hGLP-1R) (Homo sapiens, UniProt P43220); assay: cAMP production (HTRF) in CHO cells expressing hGLP-1R; format: cell-based; set-up: expressed in transfected cells
human GLP-1 receptor (hGLP-1R), sequence (P43220 24-463): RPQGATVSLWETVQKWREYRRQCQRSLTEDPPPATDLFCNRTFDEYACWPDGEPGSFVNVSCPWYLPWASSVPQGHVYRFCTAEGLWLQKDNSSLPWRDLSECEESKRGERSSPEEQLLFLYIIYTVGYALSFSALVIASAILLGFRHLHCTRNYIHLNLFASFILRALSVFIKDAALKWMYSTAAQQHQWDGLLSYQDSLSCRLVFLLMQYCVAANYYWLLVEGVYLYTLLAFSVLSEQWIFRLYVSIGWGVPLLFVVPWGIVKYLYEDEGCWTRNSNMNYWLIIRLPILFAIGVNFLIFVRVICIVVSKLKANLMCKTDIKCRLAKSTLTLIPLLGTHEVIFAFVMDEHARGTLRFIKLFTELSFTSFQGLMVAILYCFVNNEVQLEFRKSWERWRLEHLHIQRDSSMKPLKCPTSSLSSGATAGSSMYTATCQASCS
How it was run: (§1)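 Read-out: HTRF cAMP (anti-cAMP cryptate donor, cAMP-d2 acceptor in conjugate/lysis buffer), converted to % Delta F and fitted by 4-parameter logistic for EC50. Cell densities were 1×10^5 cells/mL (hGLP-1R) or 2×10^5 cells/mL (hGCGR). Stimulation lasted 30 min at room temperature.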

[2] = target: human glucagon receptor (hGCGR) (Homo sapiens, UniProt P47871); assay: cAMP production (HTRF) in CHO cells expressing hGCGR; format: cell-based; set-up: expressed in transfected cells; settings: Table 6, peptides modified at position 17; cAMP in CHO hGCGR cells; geometric mean; read-out: hGluc-R EC50
human glucagon receptor (hGCGR), sequence (P47871 26-477): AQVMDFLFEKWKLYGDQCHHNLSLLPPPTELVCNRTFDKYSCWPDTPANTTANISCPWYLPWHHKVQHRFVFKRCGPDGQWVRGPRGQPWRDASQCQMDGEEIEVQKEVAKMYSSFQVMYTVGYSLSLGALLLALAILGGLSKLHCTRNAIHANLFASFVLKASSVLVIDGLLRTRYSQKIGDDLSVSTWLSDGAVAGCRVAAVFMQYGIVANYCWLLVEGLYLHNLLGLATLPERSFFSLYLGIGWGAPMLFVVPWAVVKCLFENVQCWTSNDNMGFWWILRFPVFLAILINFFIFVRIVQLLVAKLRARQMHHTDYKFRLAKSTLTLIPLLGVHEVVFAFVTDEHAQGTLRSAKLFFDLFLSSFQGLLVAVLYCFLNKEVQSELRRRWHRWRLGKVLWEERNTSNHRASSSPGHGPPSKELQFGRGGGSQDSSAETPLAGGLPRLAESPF
How it was run: as §1

[3] = Proteolytic resistance to FasSSGF containing porcine pancreatic pepsin; format: in vitro ADME; settings: pig, simulated gastric fluid
How it was run: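 Peptide (250 μM stock in FasSSGF) mixed 1:1 with porcine pepsin stock (0.5 mg/mL in FasSSGF) and held at 37° C; samples at 0, 5, 10, 15 and 30 min quenched in ammonium bicarbonate, pH 8. Intact peptide remaining estimated by RP-HPLC peak area, UV 210 nm.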

- EC50 ([1]; Table 6, peptides modified at position 17, cAMP in CHO hGLP-1R cells, geometric mean, read-out: hGLP-1R EC50): 84.6 pM
- % Relative Potency Ratio ([1]; Table 6, % GLP-1R activity relative to GLP-1 / % GlucR activity relative to glucagon): 0.7
- EC50 [2]: 30.7 pM
- remaining at 5 min, 125 µM [3]: 81%
- remaining at 0.25 h, 125 µM [3]: 35%
- remaining at 0.5 h, 125 µM [3]: 18%
Compound: CC[C@H](C)[C@H](NC(=O)[C@H](Cc1c[nH]c2ccccc12)NC(=O)[C@H](CCC(=O)O)NC(=O)[C@@H](NC(=O)[C@](C)(Cc1ccccc1)NC(=O)[C@H](CC(=O)O)NC(=O)[C@H](CCC(N)=O)NC(=O)[C@H](C)NC(=O)[C@H](C)NC(=O)[C@H](CCCCNC(=O)CC[C@H](NC(=O)CCCCCCCCCCCCCCCCC(=O)O)C(=O)O)NC(=O)[C@H](CO)NC(=O)[C@H](CC(=O)O)NC(=O)[C@H](CC(C)C)NC(=O)[C@](C)(Cc1ccccc1)NC(=O)[C@H](CCCCN)NC(=O)[C@H](CO)NC(=O)[C@@H](NC(=O)[C@H](CC(=O)O)NC(=O)[C@H](CO)NC(=O)[C@@H](NC(=O)[C@](C)(Cc1ccccc1)NC(=O)[C@H](CO)NC(=O)CNC(=O)[C@H](Cc1c[nH]cn1)NC(=O)C(C)(C)NC(=O)[C@@H](N)Cc1c[nH]cn1)[C@@H](C)O)C(C)C)C(C)C)C(=O)N[C@@H](C)C(=O)N[C@@H](CC(N)=O)C(=O)N[C@H](C(N)=O)[C@@H](C)O [Peptide 7] (H-H[Aib]HGS[αMeF]TSDVSK[αMeF]LDSK([γGlu-C18 diacid])AAQD[αMeF]VEWIANT-NH2; N-terminus assumed)

From US20250353891A1 (MEDIMMUNE LIMITED, priority 2022, published 2025)
